Source: patent publication US6737383B1, “Herbicidal oxadiazolidines” (priority 1999, dated 2004)

Experiments:
blackgrass = assay: Test B pre/postemergence blackgrass; assay type: in vivo, Alopecurus myosuroides
Method in brief: (§1)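 Test chemicals in a non-phytotoxic solvent mixture with surfactant were sprayed preemergence onto planted seeds and postemergence onto plants 2 to 18 cm tall (1- to 4-leaf stage). After twelve to sixteen days in a greenhouse, injury was visually rated against untreated controls from 0 (no effect) to 10 (complete control).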

surinam grass = assay: Test B pre/postemergence surinam grass; assay type: in vivo, Brachiaria decumbens
Method in brief: as §1

soybean = assay: Test B pre/postemergence soybean; assay type: in vivo, Glycine max
Method in brief: as §1

bamyardgrass = assay: Test B flood test barnyardgrass; assay type: in vivo, Echinochloa crus-galli
Method in brief: (§2)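 Each value is a visual injury score relative to controls, with 10 meaning complete control and 0 no effect. Evaluation took place twelve to sixteen days after the 2-leaf-stage plants were treated and kept in the greenhouse.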

velvetleaf = assay: Test B pre/postemergence velvetleaf; assay type: in vivo, Abutilon theophrasti
Method in brief: as §1

purple nutsedge = assay: Test B pre/postemergence purple nutsedge; assay type: in vivo, Cyperus rotundus
Method in brief: as §1

rape = assay: Test B pre/postemergence rape; assay type: in vivo, Brassica napus
Method in brief: as §1

wild oat = assay: Test B pre/postemergence wild oat; assay type: in vivo, Avena fatua
Method in brief: as §1

sugar beet = assay: Test B pre/postemergence sugar beet; assay type: in vivo, Beta vulgaris
Method in brief: as §1

morningglory = assay: Test B pre/postemergence morningglory; assay type: in vivo, Ipomoea hederacea
Method in brief: as §1

smallflower flatsedge = assay: Test B flood test smallflower flatsedge; assay type: in vivo, Cyperus difformis
Method in brief: as §2

corn = assay: Test B pre/postemergence corn; assay type: in vivo, Zea mays
Method in brief: as §1

bedstraw = assay: Test B pre/postemergence bedstraw; assay type: in vivo, Galium aparine
Method in brief: as §1

rice = assay: Test B flood test rice; assay type: in vivo, Oryza sativa
Method in brief: as §2

pigweed = assay: Test B pre/postemergence pigweed; assay type: in vivo, Amaranthus retroflexus
Method in brief: as §1

cocklebur = assay: Test B pre/postemergence cocklebur; assay type: in vivo, Xanthium strumarium
Method in brief: as §1

[1] = Postemergence, Rate 125 g/ha, scale of 0 to 10 where 0 is no effect and 10 is complete control
[2] = Preemergence, Rate 62 g/ha, scale 0 to 10 (0 no effect, 10 complete control)
[3] = Preemergence, Rate 125 g/ha, 0 is no effect, 10 is complete control
[4] = Preemergence, Rate 500 g/ha, scale 0 to 10 (0 no effect, 10 complete control)
[5] = Rate 62 g/ha, Postemergence, scale of 0 to 10 where 0 is no effect and 10 is complete control
[6] = Rate 250 g/ha, Postemergence, scale 0 to 10, 0 is no effect, 10 is complete control
[7] = Rate 500 g/ha, Postemergence, scale 0 to 10
[8] = Postemergence, Rate 62 g/ha, scale 0 to 10, 0 is no effect, 10 is complete control
[9] = Preemergence, Rate 250 g/ha, scale 0 to 10, 0 is no effect, 10 is complete control
[10] = Postemergence (flood test species), Rate 125 g/ha, scale of 0 to 10 where 0 is no effect and 10 is complete control
[11] = Rate 250 g/ha, Postemergence (flood test), scale 0 to 10, 0 is no effect, 10 is complete control
[12] = Rate 250 g/ha, headed Pre-emergence (flood test species), scale 0 to 10 (0 no effect, 10 complete control)
[13] = Rate 500 g/ha, headed Pre-emergence (flood test species), scale 0 to 10 (0 no effect, 10 complete control)
[14] = Rate 1000 g/ha, Pre-emergence (as headed), scale 0 to 10
[15] = Rate 62 g/ha, Postemergence section, flood test species, scale of 0 to 10 where 0 is no effect and 10 is complete control
[16] = Rate 500 g/ha, listed under Postemergence (flood test species), scale 0 to 10
[17] = Rate 2000 g/ha, Pre-emergence (as headed), scale 0 to 10

Cc1cnn(C)c1-n1c(=O)on(C(=O)N(c2ccc(F)cc2)C(C)C)c1=O [Compound 125]
2: Plant response rating, Morningglory (morningglory; [6]) | Morningglory plant response rating (morningglory; [7])
0: Blackgrass plant response rating (blackgrass; [1]) | Blackgrass plant response rating (blackgrass; [2]) | Blackgrass plant response rating (0 to 10 scale) (blackgrass; [3]) | Blackgrass plant response rating (blackgrass; [4]) | Blackgrass plant response rating (blackgrass; [5]) | Plant response rating, Blackgrass (blackgrass; [6]) | Blackgrass plant response rating (blackgrass; [7]) | B. signalgrass plant response rating (surinam grass; [8]) | B. signalgrass plant response rating (surinam grass; [1]) | B. signalgrass plant response rating (surinam grass; [2]) | B. signalgrass plant response rating (0 to 10 scale) (surinam grass; [3]) | B. signalgrass plant response rating (surinam grass; [9]) | B. signalgrass plant response rating (surinam grass; [4]) | Plant response rating, B. signalgrass (surinam grass; [6]) | B. signalgrass plant response rating (surinam grass; Rate 500 g/ha, Postemergence, scale of 0 to 10 where 0 is no effect and 10 is complete control) | Soybean plant response rating (soybean; [2]) | Soybean plant response rating (0 to 10 scale) (soybean; [3]) | Soybean plant response rating (soybean; [9]) | Soybean plant response rating (soybean; [4]) | Soybean plant response rating (soybean; [5]) | Barnyardgrass plant response rating (bamyardgrass; [10]) | Barnyardgrass plant response rating (bamyardgrass; [8]) | Plant response rating, Barnyardgrass (bamyardgrass; [11]) | Barnyardgrass plant response rating (bamyardgrass; [12]) | Plant response rating, Barnyardgrass (bamyardgrass; [13]) | Barnyardgrass plant response rating (bamyardgrass; Rate 500 g/ha, listed under Postemergence (flood test species), scale 0 to 10, 0 no effect, 10 complete control) | Barnyardgrass plant response rating (bamyardgrass; [14]) | Barnyardgrass plant response rating (bamyardgrass; Rate 2000 g/ha, Pre-emergence (as headed), scale 0 to 10, 0 no effect, 10 complete control) | Velvetleaf plant response rating (velvetleaf; [1]) | Velvetleaf plant response rating (velvetleaf; [2]) | Velvetleaf plant response rating (0 to 10 scale) (velvetleaf; [3]) | Velvetleaf plant response rating (velvetleaf; [9]) | Velvetleaf plant response rating (velvetleaf; [4]) | Velvetleaf plant response rating (velvetleaf; [5]) | Plant response rating, Velvetleaf (velvetleaf; [6]) | Velvetleaf plant response rating (velvetleaf; [7]) | Nutsedge plant response rating (purple nutsedge; [1]) | Nutsedge plant response rating (purple nutsedge; [2]) | Nutsedge plant response rating (0 to 10 scale) (purple nutsedge; [3]) | Nutsedge plant response rating (purple nutsedge; [9]) | Nutsedge plant response rating (purple nutsedge; [4]) | Nutsedge plant response rating (purple nutsedge; [5]) | Plant response rating, Nutsedge (purple nutsedge; [6]) | Nutsedge plant response rating (purple nutsedge; [7]) | Rape plant response rating (rape; [1]) | Rape plant response rating (rape; [2]) | Rape plant response rating (0 to 10 scale) (rape; [3]) | Rape plant response rating (rape; [9]) | Rape plant response rating (rape; [4]) | Rape plant response rating (rape; [5]) | Plant response rating, Rape (rape; [6]) | Rape plant response rating (rape; [7]) | Wild oats plant response rating (wild oat; [1]) | Wild oats plant response rating (wild oat; [2]) | Wild oats plant response rating (0 to 10 scale) (wild oat; [3]) | Wild oats plant response rating (wild oat; [9]) | Wild oats plant response rating (wild oat; [4]) | Wild oats plant response rating (wild oat; [5]) | Plant response rating, Wild oats (wild oat; [6]) | Wild oats plant response rating (wild oat; [7]) | Sugarbeets plant response rating (sugar beet; [1]) | Sugarbeets plant response rating (sugar beet; [2]) | Sugarbeets plant response rating (0 to 10 scale) (sugar beet; [3]) | Sugarbeets plant response rating (sugar beet; [9]) | Sugarbeets plant response rating (sugar beet; [4]) | Sugarbeets plant response rating (sugar beet; [5]) | Plant response rating, Sugarbeets (sugar beet; [6]) | Sugarbeets plant response rating (sugar beet; [7]) | Morningglory plant response rating (morningglory; [1]) | Morningglory plant response rating (morningglory; [2]) | Morningglory plant response rating (0 to 10 scale) (morningglory; [3]) | Morningglory plant response rating (morningglory; [9]) | Morningglory plant response rating (morningglory; [4]) | Morningglory plant response rating (morningglory; [5]) | S. Flatsedge plant response rating (smallflower flatsedge; [10]) | S. Flatsedge plant response rating (smallflower flatsedge; Pre-emergence, Rate 1000 g/ha, scale 0 to 10 (0 no effect, 10 complete control)) | S. Flatsedge plant response rating (smallflower flatsedge; [15]) | Plant response rating, S. Flatsedge (smallflower flatsedge; [11]) | S. Flatsedge plant response rating (smallflower flatsedge; [12]) | Plant response rating, S. Flatsedge (smallflower flatsedge; [13]) | S. Flatsedge plant response rating (smallflower flatsedge; [16]) | S. Flatsedge plant response rating (smallflower flatsedge; [17]) | Corn plant response rating (corn; [1]) | Corn plant response rating (corn; [2]) | Corn plant response rating (0 to 10 scale) (corn; [3]) | Corn plant response rating (corn; [9]) | Corn plant response rating (corn; [4]) | Corn plant response rating (corn; [5]) | Plant response rating, Corn (corn; [6]) | Corn plant response rating (corn; [7]) | Bedstraw plant response rating (bedstraw; [2]) | Bedstraw plant response rating (0 to 10 scale) (bedstraw; [3]) | Bedstraw plant response rating (bedstraw; [9]) | Bedstraw plant response rating (bedstraw; [4]) | Bedstraw plant response rating (bedstraw; Rate 500 g/ha, Postemergence, scale 0 to 10, 0 no effect, 10 complete control) | Rice plant response rating (rice; [10]) | Rice plant response rating (rice; [15]) | Plant response rating, Rice (rice; [11]) | Rice plant response rating (rice; [12]) | Plant response rating, Rice (rice; [13]) | Rice plant response rating (rice; [16]) | Rice plant response rating (rice; [14]) | Rice plant response rating (rice; [17]) | Redroot pigweed plant response rating (pigweed; [1]) | Redroot pigweed plant response rating (pigweed; [2]) | Redroot pigweed plant response rating (0 to 10 scale) (pigweed; [3]) | Redroot pigweed plant response rating (pigweed; [9]) | Redroot pigweed plant response rating (pigweed; [4]) | Redroot pigweed plant response rating (pigweed; [5]) | Plant response rating, Redroot pigweed (pigweed; [6]) | Redroot pigweed plant response rating (pigweed; [7]) | Cocklebur plant response rating (cocklebur; [1]) | Cocklebur plant response rating (cocklebur; [2]) | Cocklebur plant response rating (0 to 10 scale) (cocklebur; [3]) | Cocklebur plant response rating (cocklebur; [9]) | Cocklebur plant response rating (cocklebur; [4]) | Cocklebur plant response rating (cocklebur; [5]) | Plant response rating, Cocklebur (cocklebur; [6]) | Cocklebur plant response rating (cocklebur; [7])
4: Soybean plant response rating (soybean; [1]) | Plant response rating, Soybean (soybean; [6]) | Soybean plant response rating (soybean; [7])
